Results: patent US8852569B2, “Prevention and treatment of itch with cysteine protease inhibition” (The General Hospital Corporation, priority 2008, dated 2014)

Tests used:
human cathepsin S = molecular target: T1, human cathepsin S (Homo sapiens, UniProt P25774); test: Chromogenic substrate assay, inhibition of cathepsin S by E64; format: biochemical; details: FIG. 1; protease 0.84 μM, E64 2 μM
T1 construct: made in house; host or cells: E. coli
Method: (§1) The concentrations of all the three proteases are at 0.84 μM and that of E64, a non-selective irreversible inhibitor of cysteine proteases, is at 2 μM […].
(§2) Papain served as a positive control cysteine protease. The cathepsin S and K were further evaluated for their capacity to activate PAR receptors as noted below.

human cathepsin K = molecular target: T2, human cathepsin K (Homo sapiens, UniProt P43235); test: Chromogenic substrate assay, inhibition of cathepsin K by E64; format: biochemical; details: FIG. 1; protease 0.84 μM, E64 2 μM
T2 construct: made in house; host or cells: E. coli
T2 sequence (P43235 115-329): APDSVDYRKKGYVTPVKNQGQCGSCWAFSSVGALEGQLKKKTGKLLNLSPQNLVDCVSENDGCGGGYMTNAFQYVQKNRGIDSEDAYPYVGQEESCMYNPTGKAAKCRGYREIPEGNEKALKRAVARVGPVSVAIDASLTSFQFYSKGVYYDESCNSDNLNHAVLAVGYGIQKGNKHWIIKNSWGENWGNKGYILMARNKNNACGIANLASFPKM
Method: as §1, §2

PAR2 = test: PAR activation by cytoplasmic calcium release in transfected HeLa cells (Fura-2 ratiometric imaging), PAR2; format: cell-based, human; details: FIG. 3C; cathepsin S 2 μM, E64 10 μM, fura-2 single cell imaging
Method: (§3) The responses to PAR 2 and 4 were blocked by the protease inhibitor E64 (10 μM) as a control). Other controls included vector alone and vector encoding the PAR1 receptor. Cathepsin S was added as indicated. The averages from at least three separate experiments were then combined +/−SD.
(§4) Salmon sperm (SS) DNA is used as control. The averages from at least three separate experiments were then combined +/−SD.
(§5) PAR activation observed by cytoplasmic calcium release—The four human PAR cDNAs were obtained from commercial sources and cloned into the pcDNA3.1(−) vector (INVITROGEN™ Inc.). HeLa cells were transfected with 10 μg of vector cDNA using Lipofectamine 2000 (INVITROGEN™ Inc.) and cultured for two days in 96-well glass bottom plates at 30,000 cells/well. Cells were loaded with Fura-2 as follows. The medium was aspirated and replaced with 100 μl of complete DMEM containing 2 μM Fura-2 (INVITROGEN™ Inc.) and kept at room temperature in the dark for 1 hr. The medium was again aspirated and each well received 90 μl of HEPES buffered saline (20 mM HEPES, 115 mM NaCl, 5.4 mM KCl, 2 mM CaCl2, 0.8 mM MgCl2, 13.8 mM glucose, pH 7.4). Plates were observed using a Zeiss Axiovert 200M microscope equipped with a filter wheel for monitoring excitation at 340 and 380 nm. Axiovision software, version 4.6 was used to analyze ratiometric calcium imaging of the cells. […]

PAR4 = test: PAR activation by cytoplasmic calcium release in transfected HeLa cells (Fura-2 ratiometric imaging), PAR4; format: cell-based, human; details: FIG. 3C; cathepsin S 2 μM, E64 10 μM, fura-2 single cell imaging
Method: as §3, §4, §5

T1 sequence (P25774 115-331): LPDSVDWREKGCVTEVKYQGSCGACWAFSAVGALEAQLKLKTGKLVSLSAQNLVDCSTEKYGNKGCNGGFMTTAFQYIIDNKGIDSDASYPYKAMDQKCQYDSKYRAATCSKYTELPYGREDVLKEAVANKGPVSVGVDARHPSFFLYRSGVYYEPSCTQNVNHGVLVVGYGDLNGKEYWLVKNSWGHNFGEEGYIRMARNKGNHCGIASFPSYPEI

## CC(C)C[C@H](NC(=O)[C@H]1O[C@@H]1C(=O)O)C(=O)NCCCCN=C(N)N (relative stereo) [E64, trans-epoxysuccinyl-L-leucylamide-(4-guanidino) butane, reference compound]
Human cathepsin S
  protease activity of cathepsin S (cleavage of Z-Phe-Arg-pNA) in presence of E64: eliminated
Human cathepsin K
  protease activity of cathepsin K (cleavage of Z-Phe-Arg-pNA) in presence of E64: eliminated
PAR2
  cathepsin S induced PAR2 response in presence of E64: blocked
PAR4
  cathepsin S induced PAR4 response in presence of E64: blocked
